Laboratory results as given in patent publication US11077090B2, “Compounds and compositions and uses thereof” (Sunovion Pharmaceuticals Inc., priority 2016, dated 2021).

Assays:
Format in all cases: in vivo
Male C57Bl/6J mice [1] = assay: Marble burying test; design: key: −: No reduction in number of marbles buried; +: Significant reduction in number of marbles buried (P < 0.05 vs vehicle)
How it was run: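 Mice (n=10/group) dosed i.p. or p.o. with compound or water 30 min before a 30-min session in cages with twenty marbles; marbles at least two-thirds covered scored buried. Distance traveled tracked by overhead camera for locomotion; fewer marbles buried than vehicle indicates anxiolytic-like effect.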

Male C57Bl/6J mice [2] = assay: Amphetamine induced hyperlocomotion assay; design: key: #: Significant increase in total distance traveled (P < 0.05 vs vehicle + AMPH group); −: No change in total distance traveled; Significant decrease in total distance traveled (P < 0.05 vs vehicle + AMPH group)
Description: Psychostimulants such as amphetamine (AMPH) are frequently used to induce or mimic a manic-like or psychotic-like state. AMPH administration to rodents increases horizontal locomotion, vertical rearing and repetitive stereotyped behaviors, and typical antipsychotic drugs, such as haloperidol, can reduce these behaviors. The antimanic/antipsychotic-like effects of test compounds were evaluated in male C57Bl/6J mice from Jackson Laboratories Mice were acclimatized to the experimental room for at least 1 hour prior to testing. The mice (n=10 per group) were administered vehicle or test compound orally by gavage (10 mL/kg injection volume) and placed individually in the novel open field (OF) chambers (Med Associates) for 30 minutes of baseline activity measurement. Mice were then injected with either water or AMPH (4 mg/kg, i.p., 10 mL/kg) and placed back in the same individual OF chambers for a 60-minute testing session during which the effects of test compounds on stimulant-induced behaviors (total distance traveled, rearing and stereotypy) were measured. A reduction in total distance traveled relative to the vehicle+AMPH condition indicates an antimanic/antipsychotic drug-like response.

Male C57Bl/6J mice [3] = assay: Prepulse inhibition of startle (PPI); design: key: −: No change in PPI; +: Significant increase in PPI at one pre-pulse intensity (P < 0.05 vs vehicle); ++: Significant increase in PPI at two pre-pulse intensities (P < 0.05 vs vehicle); +++: Significant increase in PPI at three pre-pulse intensities (P < 0.05 vs vehicle)
Description: The acoustic startle is an unconditioned reflex response to an external auditory stimulus. Prepulse inhibition of startle (PPI) refers to the reduction in the startle response caused by the presentation of a low-intensity auditory stimulus prior to the startle stimulus. The PPI paradigm is used for the study of schizophrenia and antipsychotic action due to the similarities between the results from human and rodent studies. PPI has been used as a tool for the assessment of deficiencies in sensory-motor gating observed in schizophrenia and to screen for potential antipsychotic drugs. Various psychotomimetic drugs, such as phencyclidine (PCP), can disrupt PPI. In mice, antipsychotic drugs such as haloperidol can increase PPI and clozapine can reverse the disruption of PPI induced by PCP.
Male C57Bl/6J mice from Jackson Laboratories were placed in the PPI chambers (Med Associates) for a 5 min session of white noise (70 dB) habituation. After the habituation period, the test session was initiated. The session started with a habituation block of 6 presentations of the startle stimulus alone, followed by 10 PPI blocks, each of which consisted of 6 different types of trials. Trial types were: ‘null’ (no stimuli), ‘startle’ (120 dB), ‘startle plus prepulse’ (4, 8, and 12 dB over background noise, i.e., 74, 78, or 82 dB) and ‘prepulse’ (82 dB). Trial types were presented in a random order within each block. Each trial started with a 50 ms stimulus-free period during which baseline movements were recorded. This was followed by a subsequent 20 ms period during which the prepulse stimulus was presented and responses to the prepulse measured. After a further 100 ms period, the startle stimulus was presented for 40 ms and responses recorded for 100 ms from startle onset. Responses were sampled every ms. The inter-trial interval was variable with an average of 15 s (range from 10 to 20 s). In ‘startle’ trials, the basic auditory startle response was measured. The basic startle response was calculated as the mean startle response of all ‘startle’ trials (i.e., excluding the first habituation block). In ‘startle plus prepulse’ trials, the degree of inhibition of the normal startle was calculated and expressed as a percentage of the basic startle response.
Mice were treated with vehicle or test compound orally by gavage, or haloperidol (1 mg/kg, i.p.), in 10 mL/kg injection volumes, 30 min prior to PPI test. The PPI enclosures were cleaned following each test. An increase in the percent PPI relative to the vehicle condition indicates an antipsychotic drug-like response.

Compound | Marbles Buried (Male C57Bl/6J mice [1]; 3 mg/kg (p.o.)) | Marbles Buried (Male C57Bl/6J mice [1]; 10 mg/kg (p.o.)) | Marbles Buried (Male C57Bl/6J mice [1]; 30 mg/kg (p.o.)) | Total Distance Traveled (Male C57Bl/6J mice [2]; 3 mg/kg PO Compound + AMPH) | Total Distance Traveled (Male C57Bl/6J mice [2]; 10 mg/kg PO Compound + AMPH) | Total Distance Traveled (Male C57Bl/6J mice [2]; 30 mg/kg PO Compound + AMPH) | Effect on Pre-Pulse Inhibition (PPI) (Male C57Bl/6J mice [3]; 3 mg/kg PO) | Effect on Pre-Pulse Inhibition (PPI) (Male C57Bl/6J mice [3]; 10 mg/kg PO) | Effect on Pre-Pulse Inhibition (PPI) (Male C57Bl/6J mice [3]; 30 mg/kg PO)
N[C@@H]1COCc2ccccc21 (single isomer, unassigned) [Example 111] | − | + | + | # | − | + | − | − | +++
N[C@H]1COCc2ccc(F)cc21 (single isomer, unassigned) [Example 114] | + | + | + |  | − | + |  | − | −
N[C@@H]1COCc2ccc3ccccc3c21 (single isomer, unassigned) [Example 117] | + | + | + |  | − | + |  | − | +++
N[C@H]1COCc2ccc3ccccc3c21 (single isomer, unassigned) [Example 118] |  | + | + |  | − | + |  | − | −
Cc1ccc2c(c1)[C@H](N)COC2 [Example 123] |  | + | + |  | − | + |  | − | −
Cc1ccc2c(c1)[C@@H](N)COC2 [Example 124] |  | + | + |  | − | + |  | − | −
